Laboratory results: patent US20050090506A1, “Insecticidal perfluoroalkylthiazole derivatives” (Nippon Soda Co., Ltd., priority 2003, published 2005)

| melting point | SMILES |
| --- | --- |
| 133 to 134 °C | O=C(Nc1nc(C(F)(F)C(F)(F)F)c(CCl)s1)c1cc(C(F)(F)F)cc(C(F)(F)F)c1 [Compound 47, N-(5-chloromethyl-4-pentafluoroethylthiazol-2-yl)-3,5-bis-trifluoromethylbenzamide] |
| 202 to 203 °C | CCOC(=O)c1sc(NC(=O)c2ccc(C)cc2)nc1C(F)(F)C(F)(F)F [Compound 2, N-(5-Ethoxycarbonyl-4-pentafluoroethylthiazol-2-yl)-4-methylbenzamide] |
| 154 to 155 °C | CCOC(=O)c1sc(NC(=O)c2cc(C(F)(F)F)cc(C(F)(F)F)c2)nc1C(F)(F)C(F)(F)F [Compound 68, N-(5-Ethoxycarbonyl-4-pentafluoroethylthiazol-2-yl)-3,5-bis-trifluoromethylbenzamide] |
